PubChem BioAssay AID2060496 (Molecular Pharmacology Branch, DTP, NCI, 2025)
pIC50: −log10 of the molar value.

System: 276233-004-R-J1-PDC complex spheroid viability
Test: Anticancer human tumor 276233-004-R-J1-PDC patient-derived colon adenocarcinoma cell line growth inhibition [GQUAD]
Details: for pIC50: curve of first compound; for viability, T/C: stronger effect = lower value
Source text: DNA G-quadruplex Stabilizer Agents in Combinations in Complex Spheroids
A high-throughput screen of multi-cell type tumor spheroids was designed to identify active combinations of DNA G-quadruplex stabilizer agents and targeted small molecules. Complex spheroids include a stromal component modeled by human endothelial cells (HUVEC) and fibroblasts modeled by human mesenchymal stem cells (MSCs). The concentration ranges selected for each drug and investigational agent were based upon clinically achievable concentrations if the clinical Cmax of the agent was known.
Compounds. The drugs and investigational agents: pidnarulex (CX-5461; NSC782164), APTO-253 (NSC789042), BRACO-19 (NSC847499), peposertib (NSC802822), ceralasertib (NSC780249), elimusertib (NSC800525), camonsertib (NSC841442), AZD-1390 (NSC803789), olaparib (NSC753686), talazoparib (NSC767125), ART-558 (NSC835418), sotorasib (NSC818433), MRTX-1133 (NSC836407), SN-38 (NSC673596), topotecan (NSC609699), etoposide (NSC141540), doxorubicin (NSC123127), gemcitabine (NSC613327), 5-fluorouracil (NSC19893), paclitaxel (NSC125973), vemurafenib (NSC761431), panobinostat (NSC761190), R-306465 (JNJ-16241199; NSC773264), adavosertib (NSC754352), TP-3654 (NSC805149), carboplatin (NSC241240), KSQ-4279 (NSC840948), and staurosporine (NSC755774) were obtained from the National Cancer Institute (NCI) Developmental Therapeutics Program Chemical Repository (34). The FDA-approved anticancer drug set is available from the NCI Developmental Therapeutics Program. […] The stock solutions were prepared in dimethyl sulfoxide (DMSO, Sigma-Aldrich, St. Louis, MO, cat. D2650) at 800-fold the tested concentration and stored at -70 degrees C prior to their use. All drugs and investigational agents were tested over a range starting from a high concentration at or near the clinical Cmax and decreasing in half-log increments. If the clinical Cmax for an agent had not been determined, the highest concentration tested was 10 microM.
2.3 Cell Culture. All cells were maintained in an incubator at 37 degrees C and 5% CO2 with 95% humidity. The PDC lines were cultured according to standard operating procedures established by the NCI PDMR. All PDCs were thawed and cultured in Matrigel-coated flasks prepared with a working solution of 1X Ham's F-12 nutrient mix, without supplementation (Invitrogen, cat. 11765054), 100 U/mL penicillin-streptomycin (Invitrogen, cat. 15140122), and 2.5% Matrigel (Corning Inc., cat. 354248) for the first three passages. The 857933-349-R-J2-PDC line was cultured in 6C/Colon 1B media, which includes advanced DMEM/F-12 (Thermo Fisher Scientific, cat. 12634028), 10 mM HEPES (Thermo Fisher Scientific, cat. 15630080), 1X GlutaMAX supplement (Thermo Fisher Scientific, cat. 35050061), 0.1 mg/mL primocin (InvivoGen, cat. ant-pm-2), 10% defined fetal bovine serum, heat inactivated (HyClone Laboratories Inc., cat. SH30070.03HI), 50% L-WRN conditioned media (ATCC, cat. CRL-3276), 1.25 mM N-Acetyl-L-cysteine (Sigma-Aldrich, cat. A9165), 10 mM nicotinamide (Sigma-Aldrich, cat. N0636), 1X B-27 supplement (Thermo Fisher Scientific, cat. 17504044), 1X N-2 supplement (Thermo Fisher Scientific, cat. 17502048), 10 microM Y-27632 dihydrochloride (Tocris Bioscience, cat. 1254), and 50 ng/mL human EGF recombinant protein (Thermo Fisher Scientific, cat. PHG0311). The 485176-168-R4-J1-PDC line was cultured in Panc media, which includes all 6C/Colon 1B media components plus 100 ng/mL human FGF-10 (Thermo Fisher Scientific, cat. 100-26), 500 nM SB-431542 (Selleckchem, cat. S1067), and gastrin (Tocris, cat. 3006).
[…]

[1] = second compound 0.0316 µM, first compound 0.0316 µM
[2] = second compound 0.0316 µM, first compound 0.316 µM
[3] = second compound 0.1 µM, first compound 0.0316 µM
[4] = second compound 0.1 µM, first compound 0.316 µM
[5] = second compound 0.316 µM, first compound 0.0316 µM
[6] = second compound 0.316 µM, first compound 0.316 µM
[7] = second compound 1 µM, first compound 0.0316 µM
[8] = second compound 1 µM, first compound 0.316 µM
[9] = second compound 3.16 µM, first compound 0.0316 µM
[10] = second compound 3.16 µM, first compound 0.316 µM
[11] = second compound 10 µM, first compound 0.0316 µM
[12] = second compound 10 µM, first compound 0.316 µM
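Also: spheroids exposed to drugs for seven days.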
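For viability, T/C in this document: 100% = DMSO vehicle control viability.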

For `CCc1c2c(nc3ccc(O)cc13)-c1cc3c(c(=O)n1C2)COC(=O)[C@]3(O)CC` + Cc1[nH]c2ccc(F)cc2c1-c1nc2c3cccnc3c3ncccc3c2[nH]1, the pIC50 (second compound 0.0316 µM) was under 6.50, the pIC50 (second compound 0.1 µM) was under 6.50 and the pIC50 (second compound 0.316 µM) was under 6.50. For the same compound, the pIC50 (second compound 1 µM) was under 6.50, the pIC50 (second compound 3.16 µM) was under 6.50 and the pIC50 (second compound 10 µM) was over 9.00. It also gave a viability, T/C (second compound 0.0316 µM, first compound 0.000999 µM) of 104%, a viability, T/C (second compound 0.0316 µM, first compound 0.00316 µM) of 72.7% and a viability, T/C (second compound 0.0316 µM, first compound 0.00999 µM) of 85.2%. For the same compound, the viability, T/C [1] was 103%, the viability, T/C (second compound 0.0316 µM, first compound 0.0999 µM) was 106% and the viability, T/C [2] was 94.2%. The viability, T/C (second compound 0.1 µM, first compound 0.000999 µM) was 76.3%, the viability, T/C (second compound 0.1 µM, first compound 0.00316 µM) was 89.8% and the viability, T/C (second compound 0.1 µM, first compound 0.00999 µM) was 79.5%. It also gave a viability, T/C [3] of 97.5%, a viability, T/C (second compound 0.1 µM, first compound 0.0999 µM) of 111% and a viability, T/C [4] of 90.4%. The viability, T/C (second compound 0.316 µM, first compound 0.000999 µM) was 78.8%, the viability, T/C (second compound 0.316 µM, first compound 0.00316 µM) was 82.6% and the viability, T/C (second compound 0.316 µM, first compound 0.00999 µM) was 78.1%. It also gave a viability, T/C [5] of 94.1%, a viability, T/C (second compound 0.316 µM, first compound 0.0999 µM) of 97.2% and a viability, T/C [6] of 88.1%. The viability, T/C (second compound 1 µM, first compound 0.000999 µM) was 62.8%, the viability, T/C (second compound 1 µM, first compound 0.00316 µM) was 82.7% and the viability, T/C (second compound 1 µM, first compound 0.00999 µM) was 80.5%. For the same compound, the viability, T/C [7] was 81.6%, the viability, T/C (second compound 1 µM, first compound 0.0999 µM) was 90.1% and the viability, T/C [8] was 73.5%. For the same compound, the viability, T/C (second compound 3.16 µM, first compound 0.000999 µM) was 58.7%, the viability, T/C (second compound 3.16 µM, first compound 0.00316 µM) was 57.3% and the viability, T/C (second compound 3.16 µM, first compound 0.00999 µM) was 54%. The viability, T/C [9] was 62.3%, the viability, T/C (second compound 3.16 µM, first compound 0.0999 µM) was 67.3% and the viability, T/C [10] was 67.3%. It also gave a viability, T/C (second compound 10 µM, first compound 0.000999 µM) of 39.8%, a viability, T/C (second compound 10 µM, first compound 0.00316 µM) of 41.1% and a viability, T/C (second compound 10 µM, first compound 0.00999 µM) of 56.8%. It also gave a viability, T/C [11] of 62.2%, a viability, T/C (second compound 10 µM, first compound 0.0999 µM) of 55.4% and a viability, T/C [12] of 54.8%.

`O=C(NO)c1cnc(N2CCN(S(=O)(=O)c3ccc4ccccc4c3)CC2)nc1` + Cc1[nH]c2ccc(F)cc2c1-c1nc2c3cccnc3c3ncccc3c2[nH]1 was tested, and the pIC50 (second compound 0.0316 µM) was 6.37, the pIC50 (second compound 0.1 µM) was 6.43 and the pIC50 (second compound 0.316 µM) was 6.44. It also gave a pIC50 (second compound 1 µM) of 6.99, a pIC50 (second compound 3.16 µM) of over 7.50 and a pIC50 (second compound 10 µM) of over 7.50. For the same compound, the viability, T/C [1] was 87.1%, the viability, T/C (second compound 0.0316 µM, first compound 0.1 µM) was 86% and the viability, T/C [2] was 66.7%. The viability, T/C (second compound 0.0316 µM, first compound 1 µM) was 2.71%, the viability, T/C (second compound 0.0316 µM, first compound 3.16 µM) was 0.44% and the viability, T/C (second compound 0.0316 µM, first compound 10 µM) was 0.48%. The viability, T/C [3] was 83.2%, the viability, T/C (second compound 0.1 µM, first compound 0.1 µM) was 108% and the viability, T/C [4] was 57.9%. For the same compound, the viability, T/C (second compound 0.1 µM, first compound 1 µM) was 5.03%, the viability, T/C (second compound 0.1 µM, first compound 3.16 µM) was 0.38% and the viability, T/C (second compound 0.1 µM, first compound 10 µM) was 0.83%. For the same compound, the viability, T/C [5] was 50.4%, the viability, T/C (second compound 0.316 µM, first compound 0.1 µM) was 71.8% and the viability, T/C [6] was 56.1%. The viability, T/C (second compound 0.316 µM, first compound 1 µM) was 2.35%, the viability, T/C (second compound 0.316 µM, first compound 3.16 µM) was 2.07% and the viability, T/C (second compound 0.316 µM, first compound 10 µM) was 0.4%. The viability, T/C [7] was 58.8%, the viability, T/C (second compound 1 µM, first compound 0.1 µM) was 41.5% and the viability, T/C [8] was 42.8%. For the same compound, the viability, T/C (second compound 1 µM, first compound 1 µM) was 3.96%, the viability, T/C (second compound 1 µM, first compound 3.16 µM) was 1.07% and the viability, T/C (second compound 1 µM, first compound 10 µM) was 0.62%. The viability, T/C [9] was 17.4%, the viability, T/C (second compound 3.16 µM, first compound 0.1 µM) was 17% and the viability, T/C [10] was 14.8%. The viability, T/C (second compound 3.16 µM, first compound 1 µM) was 1.23%, the viability, T/C (second compound 3.16 µM, first compound 3.16 µM) was 1.33% and the viability, T/C (second compound 3.16 µM, first compound 10 µM) was 0.42%. It also gave a viability, T/C [11] of 26.4%, a viability, T/C (second compound 10 µM, first compound 0.1 µM) of 26.6% and a viability, T/C [12] of 22.1%. It also gave a viability, T/C (second compound 10 µM, first compound 1 µM) of 3.12%, a viability, T/C (second compound 10 µM, first compound 3.16 µM) of 1.25% and a viability, T/C (second compound 10 µM, first compound 10 µM) of 0.61%.
